Test results reported in US12606572B2, “Substituted heterocycles and uses thereof” (Kumquat Biosciences Inc., priority 2023, dated 2026).

Key:
[1] = biological target: T1, KRAS WT (Homo sapiens, UniProt P01116); test: HTRF assay, interaction of GST-tagged K-Ras with His-tagged hSOS1 (KRAS wildtype); assay type: biochemical; conditions: <500 nM, read-out: Inhibition of KRAS WT (IC50)
T1 construct: made in house; host or cells: E. coli BL21 (DE3)
Outline: (§1)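 GST-K-Ras (G12S or WT) with anti-GST-Eu donor mixed with His-hSOS1 and anti-6His-XL665 acceptor in ~5 mM HEPES pH 7.4, 150 mM NaCl, 1 mM DTT, 0.05% BSA, 0.0025% Igepal. After ~10 min or longer, HTRF 665/620 nm ratio read.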

[2] = biological target: T2, KRAS G12S (Homo sapiens, UniProt P01116, G12S); test: HTRF assay, interaction of GST-tagged K-Ras with His-tagged hSOS1 (KRAS G12S); assay type: biochemical; conditions: <500 nM, read-out: Inhibition of KRAS G12S (IC50)
T2 construct: made in house; host or cells: E. coli BL21 (DE3)
Outline: as §1

T1 sequence (P01116 1-188 isoform P01116-2): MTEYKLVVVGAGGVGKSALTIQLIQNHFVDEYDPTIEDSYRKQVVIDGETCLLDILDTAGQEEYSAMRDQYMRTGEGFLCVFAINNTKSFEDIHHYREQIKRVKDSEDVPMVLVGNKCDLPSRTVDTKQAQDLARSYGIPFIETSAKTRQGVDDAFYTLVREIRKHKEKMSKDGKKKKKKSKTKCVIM
T2 sequence (P01116 1-188 isoform P01116-2 G12S): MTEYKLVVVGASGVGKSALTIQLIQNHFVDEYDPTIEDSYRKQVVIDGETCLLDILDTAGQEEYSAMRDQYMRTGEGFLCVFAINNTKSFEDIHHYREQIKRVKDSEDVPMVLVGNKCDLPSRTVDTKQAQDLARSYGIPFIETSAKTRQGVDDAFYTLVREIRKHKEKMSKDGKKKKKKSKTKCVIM

IC50 [1]: < 0.5 µM | IC50 [2]: < 0.5 µM
SMILES: C[C@H](O)[C@H]1COc2c(Cl)c(-c3ccc(F)c4sc(N)c(C#N)c34)c(F)c3nc(OC[C@@]45CCCN4C[C@H](F)C5)nc(c23)N1CC1CCCN1C(=O)n1ccnc1 (stereo partly drawn) [Compound 495, 4-((5R)-4-((1-(1H-imidazole-1-carbonyl)pyrrolidin-2-yl)methyl)-8-chloro-10-fluoro-2-(((2R,7aS)-2-fluorotetrahydro-1H-pyrrolizin-7a(5H)-yl)methoxy)-5-((S)-1-hydroxyethyl)-5,6-dihydro-4H-[1,4]oxazepino [5,6,7-de]quinazolin-9-yl)-2-amino-7-fluorobenzo[b] thiophene-3-carbonitrile]
